Experimental data from US10131652B2, “Pyrimidinyloxy benzene derivatives as herbicides” (E. I. DU PONT DE NEMOURS AND COMPANY, priority 2014, dated 2018).

What was measured:
Assay type in all cases: in vivo
Details in all cases: scale 0 to 100
Horseweed = experiment: Test F postemergence plant response
[1] = tested on: arrowleaf sida (Sida rhombifolia); experiment: Test F pre-/postemergence plant response
Outline: (§1)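 Two application timings were run side by side: soil surface treatment of freshly planted seed in silt loam, and foliar treatment of seedlings 2 to 18 cm high. Plants stayed in the greenhouse 14 to 21 days before visual 0–100 injury scoring against controls.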

[2] = tested on: large (Lg) crabgrass (Digitaria sanguinalis); experiment: Test F pre-/postemergence plant response
Outline: as §1

kochia (Kochia scoparia) = experiment: Test F pre-/postemergence plant response
Outline: as §1

[3] = tested on: barnyardgrass (Echinochloa crus-galli); experiment: Test F pre-/postemergence plant response
Outline: as §1

[4] = tested on: surinam grass (Brachiaria decumbens); experiment: Test F pre-/postemergence plant response
Outline: as §1

[5] = tested on: Italian ryegrass (Lolium multiflorum); experiment: Test F pre-/postemergence plant response
Outline: as §1

[6] = tested on: hairy beggarticks (Bidens pilosa); experiment: Test F pre-/postemergence plant response
Outline: as §1

[7] = tested on: yellow nutsedge (Cyperus esculentus); experiment: Test F pre-/postemergence plant response
Outline: as §1

[8] = tested on: nightshade (eastern black nightshade, Solanum ptycanthum); experiment: Test F pre-/postemergence plant response
Outline: as §1

[9] = tested on: velvetleaf (Abutilon theophrasti); experiment: Test F pre-/postemergence plant response
Outline: as §1

[10] = tested on: ragweed (common ragweed, Ambrosia elatior); experiment: Test F pre-/postemergence plant response
Outline: as §1

## Fc1ccc(Oc2ncc(Cl)cn2)c(-c2cc(C(F)F)on2)c1Cl [Compound 96]
Horseweed; 16 g ai/ha Postemergence
  Plant response rating, Horseweed: 0
Horseweed; 31 g ai/ha Postemergence
  Plant response rating, Horseweed: 0
Horseweed; 62 g ai/ha Postemergence
  Plant response rating, Horseweed: 0
Horseweed; 125 g ai/ha Postemergence
  Plant response rating, Horseweed: 10
[1]; 16 g ai/ha Postemergence
  Plant response rating, Arrowleaf Sida: 70
[1]; 16 g ai/ha Preemergence
  Plant response rating, Arrowleaf Sida: 50
[1]; 31 g ai/ha Postemergence
  Plant response rating, Arrowleaf Sida: 80
[1]; 31 g ai/ha Preemergence
  Plant response rating, Arrowleaf Sida: 70
[1]; 62 g ai/ha Postemergence
  Plant response rating, Arrowleaf Sida: 90
[1]; 62 g ai/ha Preemergence
  Plant response rating, Arrowleaf Sida: 80
[1]; 125 g ai/ha Postemergence
  Plant response rating, Arrowleaf Sida: 95
[1]; 125 g ai/ha Preemergence
  Plant response rating, Arrowleaf Sida: 90
[2]; 16 g ai/ha Preemergence
  Plant response rating, Crabgrass, Large: 0
[2]; 31 g ai/ha Preemergence
  Plant response rating, Crabgrass, Large: 30
[2]; 62 g ai/ha Preemergence
  Plant response rating, Crabgrass, Large: 65
[2]; 125 g ai/ha Preemergence
  Plant response rating, Crabgrass, Large: 95
Kochia (Kochia scoparia); 16 g ai/ha Postemergence
  Plant response rating, Kochia: 65
Kochia (Kochia scoparia); 16 g ai/ha Preemergence
  Plant response rating, Kochia: 0
Kochia (Kochia scoparia); 31 g ai/ha Postemergence
  Plant response rating, Kochia: 75
Kochia (Kochia scoparia); 31 g ai/ha Preemergence
  Plant response rating, Kochia: 0
Kochia (Kochia scoparia); 62 g ai/ha Postemergence
  Plant response rating, Kochia: 75
Kochia (Kochia scoparia); 125 g ai/ha Postemergence
  Plant response rating, Kochia: 95
Kochia (Kochia scoparia); 125 g ai/ha Preemergence
  Plant response rating, Kochia: 90
Kochia (Kochia scoparia); Preemergence
  Plant response rating, Kochia: 65
[3]; 16 g ai/ha Postemergence
  Plant response rating, Barnyardgrass: 0
[3]; 16 g ai/ha Preemergence
  Plant response rating, Barnyardgrass: 0
[3]; 31 g ai/ha Postemergence
  Plant response rating, Barnyardgrass: 10
[3]; 31 g ai/ha Preemergence
  Plant response rating, Barnyardgrass: 0
[3]; 62 g ai/ha Postemergence
  Plant response rating, Barnyardgrass: 20
[3]; 62 g ai/ha Preemergence
  Plant response rating, Barnyardgrass: 0
[3]; 125 g ai/ha Postemergence
  Plant response rating, Barnyardgrass: 20
[3]; 125 g ai/ha Preemergence
  Plant response rating, Barnyardgrass: 0
[4]; 16 g ai/ha Preemergence
  Plant response rating, Surinam Grass: 0
[4]; 31 g ai/ha Preemergence
  Plant response rating, Surinam Grass: 0
[4]; 125 g ai/ha Preemergence
  Plant response rating, Surinam Grass: 0
[4]; Preemergence
  Plant response rating, Surinam Grass: 0
[5]; 16 g ai/ha Postemergence
  Plant response rating, Ryegrass, Italian: 0
[5]; 16 g ai/ha Preemergence
  Plant response rating, Ryegrass, Italian: 0
[5]; 31 g ai/ha Postemergence
  Plant response rating, Ryegrass, Italian: 0
[5]; 31 g ai/ha Preemergence
  Plant response rating, Ryegrass, Italian: 0
[5]; 62 g ai/ha Postemergence
  Plant response rating, Ryegrass, Italian: 0
[5]; 125 g ai/ha Postemergence
  Plant response rating, Ryegrass, Italian: 10
[5]; 125 g ai/ha Preemergence
  Plant response rating, Ryegrass, Italian: 30
[5]; Preemergence
  Plant response rating, Ryegrass, Italian: 30
[6]; 16 g ai/ha Postemergence
  Plant response rating, Beggarticks: 0
[6]; 16 g ai/ha Preemergence
  Plant response rating, Beggarticks: 0
[6]; 31 g ai/ha Postemergence
  Plant response rating, Beggarticks: 30
[6]; 31 g ai/ha Preemergence
  Plant response rating, Beggarticks: 0
[6]; 62 g ai/ha Postemergence
  Plant response rating, Beggarticks: 40
[6]; 62 g ai/ha Preemergence
  Plant response rating, Beggarticks: 0
[6]; 125 g ai/ha Postemergence
  Plant response rating, Beggarticks: 40
[6]; 125 g ai/ha Preemergence
  Plant response rating, Beggarticks: 20
[7]; 16 g ai/ha Preemergence
  Plant response rating, Nutsedge, Yellow: 0
[7]; 31 g ai/ha Preemergence
  Plant response rating, Nutsedge, Yellow: 0
[7]; 125 g ai/ha Preemergence
  Plant response rating, Nutsedge, Yellow: 0
[7]; Preemergence
  Plant response rating, Nutsedge, Yellow: 0
[8]; 16 g ai/ha Preemergence
  Plant response rating, Nightshade: 0
[8]; 31 g ai/ha Preemergence
  Plant response rating, Nightshade: 0
[8]; 125 g ai/ha Preemergence
  Plant response rating, Nightshade: 90
[8]; Preemergence
  Plant response rating, Nightshade: 65
[9]; 16 g ai/ha Preemergence
  Plant response rating, Velvetleaf: 0
[9]; 31 g ai/ha Preemergence
  Plant response rating, Velvetleaf: 60
[9]; 125 g ai/ha Preemergence
  Plant response rating, Velvetleaf: 80
[9]; Preemergence
  Plant response rating, Velvetleaf: 80
[10]; 16 g ai/ha Postemergence
  Plant response rating, Ragweed: 15
[10]; 16 g ai/ha Preemergence
  Plant response rating, Ragweed: 0
[10]; 31 g ai/ha Postemergence
  Plant response rating, Ragweed: 20
[10]; 31 g ai/ha Preemergence
  Plant response rating, Ragweed: 20
[10]; 62 g ai/ha Postemergence
  Plant response rating, Ragweed: 20
[10]; 125 g ai/ha Postemergence
  Plant response rating, Ragweed: 40
[10]; 125 g ai/ha Preemergence
  Plant response rating, Ragweed: 35
[10]; Preemergence
  Plant response rating, Ragweed: 50

## FC(F)c1cc(-c2ccccc2Oc2ncc(Br)cn2)on1 [Compound 212]
Horseweed; 16 g ai/ha Postemergence
  Plant response rating, Horseweed: 0
Horseweed; 31 g ai/ha Postemergence
  Plant response rating, Horseweed: 0
Horseweed; 62 g ai/ha Postemergence
  Plant response rating, Horseweed: 15
Horseweed; 125 g ai/ha Postemergence
  Plant response rating, Horseweed: 10
[1]; 16 g ai/ha Postemergence
  Plant response rating, Arrowleaf Sida: 75
[1]; 31 g ai/ha Postemergence
  Plant response rating, Arrowleaf Sida: 70
[1]; 62 g ai/ha Postemergence
  Plant response rating, Arrowleaf Sida: 85
[1]; 125 g ai/ha Postemergence
  Plant response rating, Arrowleaf Sida: 100
Kochia (Kochia scoparia); 16 g ai/ha Postemergence
  Plant response rating, Kochia: 50
Kochia (Kochia scoparia); 31 g ai/ha Postemergence
  Plant response rating, Kochia: 90
Kochia (Kochia scoparia); 62 g ai/ha Postemergence
  Plant response rating, Kochia: 100
Kochia (Kochia scoparia); 125 g ai/ha Postemergence
  Plant response rating, Kochia: 100
[3]; 16 g ai/ha Postemergence
  Plant response rating, Barnyardgrass: 0
[3]; 31 g ai/ha Postemergence
  Plant response rating, Barnyardgrass: 0
[3]; 62 g ai/ha Postemergence
  Plant response rating, Barnyardgrass: 0
[3]; 125 g ai/ha Postemergence
  Plant response rating, Barnyardgrass: 10
[5]; 16 g ai/ha Postemergence
  Plant response rating, Ryegrass, Italian: 0
[5]; 31 g ai/ha Postemergence
  Plant response rating, Ryegrass, Italian: 0
[5]; 62 g ai/ha Postemergence
  Plant response rating, Ryegrass, Italian: 0
[5]; 125 g ai/ha Postemergence
  Plant response rating, Ryegrass, Italian: 0
[6]; 16 g ai/ha Postemergence
  Plant response rating, Beggarticks: 25
[6]; 31 g ai/ha Postemergence
  Plant response rating, Beggarticks: 40
[6]; 62 g ai/ha Postemergence
  Plant response rating, Beggarticks: 40
[6]; 125 g ai/ha Postemergence
  Plant response rating, Beggarticks: 40
[10]; 16 g ai/ha Postemergence
  Plant response rating, Ragweed: 20
[10]; 31 g ai/ha Postemergence
  Plant response rating, Ragweed: 20
[10]; 62 g ai/ha Postemergence
  Plant response rating, Ragweed: 30
[10]; 125 g ai/ha Postemergence
  Plant response rating, Ragweed: 50
